From patent US20260250290A1 (BRISTOL-MYERS SQUIBB COMPANY, priority 2023, published 2026) come the findings set out here.

pIC50: −log10 of the molar value. Counter-ions that a name gives are not always drawn.

In the test the target is T1, full length SGK1 (Homo sapiens, UniProt O00141).
T1 construct: 125 μM full length SGK1 (Life Technologies Part #PR7358A); purchased Life Technologies PR7358A
T1 sequence (O00141 1-431): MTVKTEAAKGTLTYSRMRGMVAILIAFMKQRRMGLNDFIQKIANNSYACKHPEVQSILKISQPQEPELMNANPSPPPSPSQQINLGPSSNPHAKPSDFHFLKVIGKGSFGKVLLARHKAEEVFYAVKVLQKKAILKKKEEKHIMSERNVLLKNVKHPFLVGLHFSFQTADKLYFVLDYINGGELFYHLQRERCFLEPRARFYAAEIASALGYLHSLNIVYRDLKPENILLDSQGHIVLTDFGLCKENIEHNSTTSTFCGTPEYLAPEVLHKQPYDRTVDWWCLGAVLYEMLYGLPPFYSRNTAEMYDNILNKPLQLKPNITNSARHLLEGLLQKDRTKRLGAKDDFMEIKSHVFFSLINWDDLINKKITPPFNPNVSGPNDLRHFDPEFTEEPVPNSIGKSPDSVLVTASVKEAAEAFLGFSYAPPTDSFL
As to the kind of experiment: SGK1 inhibition Assay A (Caliper LabChip electrophoretic separation of fluorescent peptide substrate and phosphorylated product). The format is biochemical. Conditions: Assay A; 20 μM ATP, 40 min incubation; read-out: SGK1 IC50.
For `N#Cc1ccc(-c2cc(N3CCC[C@@H](NC(=O)c4sc(C(F)F)cc4N4CCOCC4)C3)c3c(N)ncnn23)cn1` [Example 318, (R)—N-(1-(4-amino-7-(6-cyanopyridin-3-yl)pyrrolo[2,1-f][1,2,4]triazin-5-yl)piperidin-3-yl)-5-(difluoromethyl)-3-morpholinothiophene-2-carboxamide], the negative-log IC50 (pIC50) was 7.82.

As to `CS(=O)(=O)c1ccc(-c2cc(N3CCC[C@@H](NC(=O)c4ccc5c(c4)CC5)C3)c3c(N)ncnn23)cc1` [Example 83, (R)-N-(1-(4-amino-7-(4-(methylsulfonyl)phenyl)pyrrolo[2,1-f][1,2,4]triazin-5-yl)piperidin-3-yl)bicyclo[4.2.0]octa-1(6),2,4-triene-3-carboxamide, TFA], the pIC50 is 7.32.

On to `Nc1ncnn2c(-c3ccc(=O)n(CC(F)F)c3)cc(N3CCC[C@@H](NC(=O)c4cc(-c5ccccc5)n[nH]4)C3)c12` [Example 504, (R)-N-(1-(4-amino-7-(1-(2,2-difluoroethyl)-6-oxo-1,6-dihydropyridin-3-yl)pyrrolo[2,1-f][1,2,4]triazin-5-yl)piperidin-3-yl)-3-phenyl-1H-pyrazole-5-carboxamide], for which the pIC50 is 8.70. To `COC(=O)N1CC=C(c2cc(N3CCC[C@@H](NC(=O)c4sc5ccccc5c4OC4CCN(CCO)CC4)C3)c3c(N)ncnn23)C1` [Example 660, methyl (R)-3-(4-amino-5-(3-(3-((1-(2-hydroxyethyl)piperidin-4-yl)oxy)benzo[b]thiophene-2-carboxamido)piperidin-1-yl)pyrrolo[2,1-f][1,2,4]triazin-7-yl)-2,5-dihydro-1H-pyrrole-1-carboxylate] belongs 8.70. The value for `Cc1ccc(C(=O)N[C@@H]2CCCN(c3cc(-c4ccc(S(C)(=O)=O)cc4)n4ncnc(N)c34)C2)s1` [Example 87, (R)-N-(1-(4-amino-7-(4-(methylsulfonyl)phenyl)pyrrolo[2,1-f][1,2,4]triazin-5-yl)piperidin-3-yl)-5-methylthiophene-2-carboxamide] was 8.70.

On to `CS(=O)(=O)c1ccc(-c2cc(N3CCC[C@@H](NC(=O)c4ccnc(N5CCOCC5)c4)C3)c3c(N)ncnn23)cc1` [Example 69, (R)-N-(1-(4-amino-7-(4-(methylsulfonyl)phenyl)pyrrolo[2,1-f][1,2,4]triazin-5-yl)piperidin-3-yl)-2-morpholinoisonicotinamide], for which the pIC50 is 7.43. To `CS(=O)(=O)c1ccc(-c2cc(N3CCC[C@@H](NC(=O)c4cc(Cl)ns4)C3)c3c(N)ncnn23)cc1` [Example 72, (R)-N-(1-(4-amino-7-(4-(methylsulfonyl)phenyl)pyrrolo[2,1-f][1,2,4]triazin-5-yl)piperidin-3-yl)-3-chloroisothiazole-5-carboxamide, TFA] belongs 7.89; to `CC(=O)N1CC=C(c2cc(N3CCC[C@@H](NC(=O)c4ccc5ncsc5c4)C3)c3c(N)ncnn23)C1` [Example 452, (R)-N-(1-(7-(1-acetyl-2,5-dihydro-1H-pyrrol-3-yl)-4-aminopyrrolo[2,1-f][1,2,4]triazin-5-yl)piperidin-3-yl)benzo[d]thiazole-6-carboxamide], 6.70. The value for `COC(=O)N1CC=C(c2cc(N3CCC[C@@H](NC(=O)c4sc(C)nc4OCCN(C)C)C3)c3c(N)ncnn23)C1` [Example 353, Methyl (R)-3-(4-amino-5-(3-(4-(2-(dimethylamino)ethoxy)-2-methylthiazole-5-carboxamido)piperidin-1-yl)pyrrolo[2,1-f][1,2,4]triazin-7-yl)-2,5-dihydro-1H-pyrrole-1-carboxylate] was 7.80; that for `CS(=O)(=O)c1ccc(-c2cc(N3CC[C@@H](NC(=O)c4ccc(Cl)s4)C3)c3c(N)ncnn23)cc1` [Example 137, (R)—N-(1-(4-amino-7-(4-(methylsulfonyl)phenyl)pyrrolo[2,1-f][1,2,4]triazin-5-yl)pyrrolidin-3-yl)-5-chlorothiophene-2-carboxamide, TFA] was 6.84; that for `Nc1ncnn2c(-c3ccc4ncnn4c3)cc(N3CCC[C@@H](NC(=O)c4ccc(Cl)s4)C3)c12` [Example 247] was 7.92. As to `CS(=O)(=O)c1ccc(-c2cc(N3CCC[C@@H](NC(=O)c4cnn(C(F)F)c4)C3)c3c(N)ncnn23)cc1` [Example 75, (R)-N-(1-(4-amino-7-(4-(methylsulfonyl)phenyl)pyrrolo[2,1-f][1,2,4]triazin-5-yl)piperidin-3-yl)-1-(difluoromethyl)-1H-pyrazole-4-carboxamide, TFA], the pIC50 was 7.36. The value for `Nc1ncnn2c(C3=CCN(C(=O)[C@@H]4CCOC4)C3)cc(N3CCC[C@@H](NC(=O)c4ccc(Cl)s4)C3)c12` [Example 895, N-((R)-1-(4-amino-7-(1-((R)-tetrahydrofuran-3-carbonyl)-2,5-dihydro-1H-pyrrol-3-yl)pyrrolo[2,1-f][1,2,4]triazin-5-yl)piperidin-3-y1)-5~ chlorothiophene-2-carboxamide] was 8.30; that for `CC(=O)NCCOc1cc(C(F)F)sc1C(=O)N[C@@H]1CCCN(c2cc(-c3ccc(=O)n(CC(F)F)c3)n3ncnc(N)c23)C1` [Example 432, (R)-3-(2-acetamidoethoxy)-N-(1-(4-amino-7-(1-(2,2-difluoro-ethyl)-6-oxo-1,6-dihydropyri-din-3-yl)pyrrolo[2,1-f] [1,2,4]triazin-5-yl)piperidin-3-yl)-5-(difluoromethyl)thio-phene-2-carboxamide] was 8.10; that for `CC(=O)N1CC=C(c2cc(N3CCC[C@@H](NC(=O)c4cccc(N5CCNC(C(F)(F)F)C5)n4)C3)c3c(N)ncnn23)C1` (stereo partly drawn) [Example 776, N-((R)-1-(7-(1-acetyl-2,5-dihydro-1H-pyrrol-3-yl)-4-aminopyrrolo[2,1-f][1,2,4]triazin-5-yl)piperidin-3-yl)-6-(3-(trifluoromethyl)piperazin-1-yl)picolinamide] was 8.30. For `Cc1cc(-c2cc(N3CCC[C@@H](NC(=O)c4ccc(C)s4)C3)c3c(N)ncnn23)ccn1` [Example 133, N-[(3R)-1-[4-amino-7-(2-methylpyridin-4-yl)pyrrolo[2,1-f][1,2,4]triazin-5-yl]piperidin-3-yl]-5-methylthiophene-2-carboxamide], the pIC50 is 8.40. The value for `N#Cc1ccc(-c2cc(N3CCC[C@@H](NC(=O)c4sc(Cl)cc4OCC4CNC4)C3)c3c(N)ncnn23)cn1` [Example 635] was 8.15; that for “(R)-3-(4-amino-5-(3-(pyrazine-2-carboxamido)piperidin-1-yl)pyrrolo[2,1-f][1,2,4]triazin-7-yl)-2,5-dihydro-1H-pyrrole-1-carboxylate [Example 540]” was 6.67. Take `Nc1ncnn2c(-c3cccc(CO)c3)cc(N3CCC[C@@H](NC(=O)c4ccc(Cl)s4)C3)c12` [Example 214, (R)-N-(1-(4-amino-7-(3-(hydroxymethyl)phenyl)pyrrolo[2,1-f][1,2,4]triazin-5-yl)piperidin-3-yl)-5-chlorothiophene-2-carboxamide]: the pIC50 was 7.96.

With `CN1CCN(CCOc2cc(Cl)sc2C(=O)N[C@@H]2CCCN(c3cc(-c4ccnc(C(F)F)c4)n4ncnc(N)c34)C2)CC1` [Example 342, (R)—N-(1-(4-amino-7-(2-(difluoromethyl)pyridin-4-yl)pyrrolo[2,1-f][1,2,4]triazin-5-yl)piperidin-3-yl)-5-chloro-3-(2-(4-methylpiperazin-1-yl)ethoxy)thiophene-2-carboxamide], the pIC50 was 8.40.

As to `CC(=O)N1CC=C(c2cc(N3CCC[C@@H](NC(=O)c4sc(Cl)cc4OC4CCNCC4F)C3)c3c(N)ncnn23)C1` (stereo partly drawn) [Example 603, N-((R)-1-(7-(1-acetyl-2,5-dihydro-1H-pyrrol-3-y1)-4-aminopyrrolo[2,1-f][1,2,4]triazin-5-yl)piperidin-3-y1)-5-chloro-3-((3-fluoropiperidin-4-yl)oxy)thiophene~2-carboxamide], the pIC50 is 8.15. The value for `Nc1ncnn2c(-c3ccc4nnnn4c3)cc(N3CCC[C@@H](NC(=O)c4ccc(Cl)s4)C3)c12` [Example 244, (R)-N-(1-(4-amino-7-(tetrazolo[1,5-a]pyridin-6-yl)pyrrolo[2,1-f][1,2,4]triazin-5-yl)piperidin-3-yl)-5-chlorothiophene-2-carboxamide] was 9.00; that for `CC(=O)N1CC=C(c2cc(N3CCC[C@@H](NC(=O)c4cccc(N5CCN(C)CC5)c4)C3)c3c(N)ncnn23)C1` [Example 735, (R)-N-(1-(7-(1-acetyl-2,5-dihydro-1H-pyrrol-3-yl)-4-aminopyrrolo[2,1-f][1,2,4]triazin-5-yl)piperidin-3-yl)-3-(4-methylpiperazin-1-yl)benzamide] was 7.68; that for `N#Cc1ccc(-c2cc(N3CCC[C@@H](NC(=O)c4sc5ccccc5c4OC4CCNCC4)C3)c3c(N)ncnn23)cn1` [Example 656, (R)—N-(1-(4-amino-7-(6-cyanopyridin-3-yl)pyrrolo[2,1-f][1,2,4]triazin-5-yl)piperidin-3-yl)-3-(piperidin-4-yloxy)benzo[b]thiophene-2-carboxamide] was 8.52. The value for `CS(=O)(=O)c1ccc(-c2cc(N3CCCC(NC(=O)c4ccccn4)C3)c3c(N)ncnn23)cc1` (centres unmarked) [Example 2, N-(1-(4-amino-7-(4-(methylsulfonyl)phenyl)pyrrolo[2,1-f][1,2,4]triazin-5-yl)piperidin-3-yl)picolinamide, TFA] was 7.09; that for `COC(=O)N1CC=C(c2cc(N3CCCC(NC(=O)c4sc(Cl)cc4OC4CCNC(C)(C)C4)C3)c3c(N)ncnn23)C1` (single isomer, unassigned) [Example 630] was 8.70.
